Assay results published in paper PMC10415338, “HIV-1-induced nuclear invaginations mediated by VAP-A, ORP3, and Rab7 complex explain infection of activated T cells” (Nature Communications, 2023).

Biological target: T1, VOR complex (VAP-A, ORP3, Rab7); Rab7 binding to ORP3 (Homo sapiens, UniProt Q9H4L5)
T1 construct: gene OSBPL3; endogenous full-length proteins in HeLa detergent lysate, ORP3 immunoisolated with antibody D-12; with Ras-related protein Rab-7a; Vesicle-associated membrane protein-associated protein A
T1 sequence (Q9H4L5 1-887): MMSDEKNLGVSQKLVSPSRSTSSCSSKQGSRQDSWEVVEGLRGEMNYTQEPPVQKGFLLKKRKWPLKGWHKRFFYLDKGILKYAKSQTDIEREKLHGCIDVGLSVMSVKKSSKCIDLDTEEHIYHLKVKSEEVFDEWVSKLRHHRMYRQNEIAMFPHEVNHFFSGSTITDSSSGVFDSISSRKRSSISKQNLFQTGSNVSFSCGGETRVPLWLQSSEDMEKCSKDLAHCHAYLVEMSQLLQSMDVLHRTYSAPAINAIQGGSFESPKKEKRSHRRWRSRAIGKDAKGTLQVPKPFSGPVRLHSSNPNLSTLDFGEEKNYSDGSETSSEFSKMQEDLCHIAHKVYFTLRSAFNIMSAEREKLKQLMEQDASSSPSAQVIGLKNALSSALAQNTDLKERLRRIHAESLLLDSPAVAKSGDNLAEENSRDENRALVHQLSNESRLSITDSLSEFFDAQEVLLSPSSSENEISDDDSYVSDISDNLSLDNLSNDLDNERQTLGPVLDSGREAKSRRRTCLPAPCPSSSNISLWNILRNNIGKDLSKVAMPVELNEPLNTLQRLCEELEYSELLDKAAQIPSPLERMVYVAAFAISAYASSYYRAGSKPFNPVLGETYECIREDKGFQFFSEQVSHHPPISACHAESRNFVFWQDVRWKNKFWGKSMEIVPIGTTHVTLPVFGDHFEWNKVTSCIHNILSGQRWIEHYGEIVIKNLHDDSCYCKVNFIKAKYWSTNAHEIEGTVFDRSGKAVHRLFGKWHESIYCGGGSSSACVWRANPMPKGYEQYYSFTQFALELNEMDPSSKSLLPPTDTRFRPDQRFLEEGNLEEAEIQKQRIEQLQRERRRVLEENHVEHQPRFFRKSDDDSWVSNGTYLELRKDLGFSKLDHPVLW
T1 sequence (Q9P0L0 2-249 partner): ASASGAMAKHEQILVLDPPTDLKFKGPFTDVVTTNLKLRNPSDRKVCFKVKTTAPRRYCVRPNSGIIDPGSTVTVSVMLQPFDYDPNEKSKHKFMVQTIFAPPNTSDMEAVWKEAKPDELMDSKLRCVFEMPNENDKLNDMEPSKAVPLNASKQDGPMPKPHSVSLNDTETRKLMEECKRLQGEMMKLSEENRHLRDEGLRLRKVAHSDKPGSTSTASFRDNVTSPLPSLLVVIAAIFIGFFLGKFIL
Experiment: ORP3 immunoisolation from drug-treated HeLa detergent lysate, Rab7/ORP3 immunoblot ratio, linear regression
Type: biochemical
Conditions: inhibition of Rab7 binding to ORP3 (VAP-A/ORP3); lysate with 1-10 μM compound, 30 min on ice; direct site on ORP3 ORD only cited from earlier work

Row | Compound | IC50
1 | CCC(C)n1ncn(-c2ccc(N3CCN(c4ccc(OCC5COC(Cn6cncn6)(c6ccc(Cl)cc6Cl)O5)cc4)CC3)cc2)c1=O (stereo not drawn) [ICZ, cis-4[4-4-4[[2-(2-4-dichlorophenyl)-2-(1H-1,2,4,triazol-1-methyl)-1,3-dioxolan-4-yl]-1-piperazinyl]phenyl]-2,4-dihydro-2-(1-methyl-propyl)-3H-1,2,4-triazol-3-one] | 4.9 µM
2 | CCC(C)n1ncn(-c2ccc(Cl)cc2)c1=O (centres unmarked) [PRR851] | 4.8 µM
